Where two headings read alike, the source gives them in different places.
What was measured:
[1] = test system: CRM1 substrate RanBP1; test: Nuclear export block (RanBP1 localization, recovery after compound removal); format: cell-based; conditions: recovery of cytoplasmic RanBP1 localization after compound washout (typically 1 h exposure; 8, 24 or 48 h recovery)
Experimental: The nuclear export blocking capability of compounds of this invention was evaluated as follows:
1-5×10^4 cells were seeded onto 12 mm glass coverslips or wells of a chamber slide (for example, Lab-Tek #177445). Cells were grown overnight at 37° C. to allow cells to attach to the surface. Media was removed and replaced with media containing the desired test compound and incubated the required time period (typically 1 h). For recovery experiments, cells were washed with PBS or media and incubated in media without test compound for the desired recovery periods (typically 8, 24, or 48 h). The media was removed and coverslips/wells were washed with PBS pH 7.4 for 1 minute. Coverslips or slides were fixed with 3.7% formaldehyde in PBS for 20 minutes at room temperature, washed three times in PBS, and stained for the CRM1 substrate RanBP1.
Coverslips or chamber slides were permeabilized and blocked in 10% donkey serum, 0.1% Triton X-100 in PBS for 30 minutes at room temperature. Primary antibodies were diluted in PBS and incubated for 1 hour at room temperature: goat-anti-RanBP1 (Santa Cruz Biotechnology, sc-1160; 1:50 dilution) and mouse-anti-tubulin (Sigma, T9026; 1:400). Cells were washed 3×5 minutes in PBS. Secondary antibodies donkey-anti-goat Cy3 (705-165-147, Jackson Immunoresearch) and donkey anti-mouse FITC (715-095-150, Jackson Immunoresearch) were diluted 1:200 in PBS and incubated for 1 hour at room temperature. Secondary antibody was removed and cells were stained with a nuclear dye such as DAPI (Sigma, D8417; 2.5 ug/mL in PBS) or Hoechst 33342 (Molecular Probes, H3570; 100 ng/mL in PBS) for 5 minutes at room temperature. Cells were washed 3×5 minutes in PBS and coverslips were mounted with FluorSave (EMD Biosciences, 80058-108). Nuclear (N) or cytoplasmic (C) localization of RanBP1 was examined using a 40× objective on a Zeiss Axiovert 200 inverted epiflourescence microscope. Nuclear localization (N>C) was confirmed after the initial drugging period.

[2] = test system: LNCap; test: Inhibition of tumor cell proliferation, LNCap; format: cell-based, human; conditions: Homo sapiens, LNCaP, read-out: Cancer Cell Line (IC50, nM) LNCap
Experimental: (§1) The biological activity of compounds of this invention was evaluated by measuring their inhibitory effect on the proliferation of various tumor cell lines. HCT-116 is a human colon cancer cell line. LNCap is a human prostate cancer cell line. SiHa is an HPV-16 positive human cervical cancer line.

[3] = test system: SKNSH; test: Inhibition of tumor cell proliferation, SKNSH; format: cell-based; conditions: Homo sapiens, SK-N-SH, read-out: IC50, nM, SKNSH
Experimental: as §1
(§2) Table D presents additional data for the activity of compounds A-1 and A-4 against various cell lines. In some instances, comparative data against leptomycin B (LMB) and/or compound VI (Dong et al., US 2005/0272727 A1 (2005) is also provided.
(§3) The additional cell lines tested against represent a variety of different cancers: bladder cancer (UM-UC-3), breast cancer (BT474, HCC1937, MDA-MB468, NCI-ADR), CNS cancer (U87MG (glioma), SKNSH (neuroblastoma)), colon cancer (LoVo, LS411N, LS513), head and neck cancer (CAL-27, FaDu), leukemia (CCRF-CEM, MOLT-4), liver cancer (HepG2), lung cancer (A549, NCI-H23, NCI-H358), melanoma (Colo829), ovarian cancer (OVCAR-4), pancreatic cancer (BxPC-3, Mia-PaCa2), prostate cancer (22Rv1, PC-3), and renal cancer (A-498, Caki-1).

[4] = test system: A549; test: Inhibition of tumor cell proliferation, A549; format: cell-based; conditions: Homo sapiens, read-out: IC50, nM, A549
Experimental: as §1, §2, §3

[5] = test system: UM-UC-3; test: Inhibition of tumor cell proliferation, UM-UC-3; format: cell-based; conditions: Homo sapiens, read-out: IC50, nM, UM-UC-3
Experimental: as §1, §2, §3

[6] = test system: SiHa; test: Inhibition of tumor cell proliferation, SiHa; format: cell-based, human; conditions: Homo sapiens, SiHa, read-out: Cancer Cell Line (IC50, nM) SiHa
Experimental: as §1

[7] = test system: HCT-116; test: Inhibition of tumor cell proliferation, HCT-116; format: cell-based, human; conditions: Homo sapiens, HCT-116, read-out: Cancer Cell Line (IC50, nM) HCT-116
Experimental: as §1

[8] = test system: NCI-ADR; test: Inhibition of tumor cell proliferation, NCI-ADR; format: cell-based; conditions: Homo sapiens, NCI/ADR-RES, read-out: IC50, nM, NCI-ADR
Experimental: as §1, §2, §3

[9] = test system: NCI-H358; test: Inhibition of tumor cell proliferation, NCI-H358; format: cell-based; conditions: Homo sapiens
Experimental: as §1, §2, §3

[10] = test system: 22Rv1; test: Inhibition of tumor cell proliferation, 22Rv1; format: cell-based; conditions: Homo sapiens
Experimental: as §1, §2, §3

[11] = test system: MOLT-4; test: Inhibition of tumor cell proliferation, MOLT-4; format: cell-based; conditions: Homo sapiens, exposure time 72 h
Experimental: as §1, §2, §3

[12] = test system: U87MG; test: Inhibition of tumor cell proliferation, U87MG; format: cell-based; conditions: Homo sapiens, U-87 MG
Experimental: as §1, §2, §3

[13] = test system: LoVo; test: Inhibition of tumor cell proliferation, LoVo; format: cell-based; conditions: Homo sapiens, exposure time 1 h
Experimental: as §1, §2, §3

[14] = test system: Caki-1; test: Inhibition of tumor cell proliferation, Caki-1; format: cell-based; conditions: Homo sapiens, exposure time 1 h
Experimental: as §1, §2, §3

[15] = test system: HCC1937; test: Inhibition of tumor cell proliferation, HCC1937; format: cell-based; conditions: Homo sapiens
Experimental: as §1, §2, §3

[16] = test system: LS513; test: Inhibition of tumor cell proliferation, LS513; format: cell-based; conditions: Homo sapiens, LS-513
Experimental: as §1, §2, §3

[17] = test system: LS411N; test: Inhibition of tumor cell proliferation, LS411N; format: cell-based; conditions: Homo sapiens, LS-411N
Experimental: as §1, §2, §3

[18] = test system: Colo829; test: Inhibition of tumor cell proliferation, Colo829; format: cell-based; conditions: Homo sapiens, COLO-829
Experimental: as §1, §2, §3

[19] = test system: Mia-PaCa2; test: Inhibition of tumor cell proliferation, Mia-PaCa2; format: cell-based; conditions: Homo sapiens, MIA PaCa-2
Experimental: as §1, §2, §3

[20] = test system: OVCAR-4; test: Inhibition of tumor cell proliferation, OVCAR-4; format: cell-based; conditions: Homo sapiens
Experimental: as §1, §2, §3

[21] = test system: NCI-H23; test: Inhibition of tumor cell proliferation, NCI-H23; format: cell-based; conditions: Homo sapiens
Experimental: as §1, §2, §3

[22] = test system: CCRF-CEM; test: Inhibition of tumor cell proliferation, CCRF-CEM; format: cell-based; conditions: Homo sapiens, exposure time 72 h
Experimental: as §1, §2, §3

[23] = test system: BT474; test: Inhibition of tumor cell proliferation, BT474; format: cell-based; conditions: Homo sapiens, BT-474
Experimental: as §1, §2, §3

[24] = test system: CAL-27; test: Inhibition of tumor cell proliferation, CAL-27; format: cell-based; conditions: Homo sapiens
Experimental: as §1, §2, §3

[25] = test system: HepG2; test: Inhibition of tumor cell proliferation, HepG2; format: cell-based; conditions: Homo sapiens
Experimental: as §1, §2, §3

[26] = test system: FaDu; test: Inhibition of tumor cell proliferation, FaDu; format: cell-based; conditions: Homo sapiens
Experimental: as §1, §2, §3

[27] = test system: A-498; test: Inhibition of tumor cell proliferation, A-498; format: cell-based; conditions: Homo sapiens, A498; exposure time 1 h
Experimental: as §1, §2, §3

[28] = test system: PC-3; test: Inhibition of tumor cell proliferation, PC-3; format: cell-based; conditions: Homo sapiens
Experimental: as §1, §2, §3

In the case of CCC(=C/[C@H](C)C/C=C/C(C)=C/[C@@H](C)C(=O)[C@@H](C)[C@H](O)[C@@H](C)C/C(C)=C/C(=O)O)/C=C/[C@@H]1OC(=O)C=C[C@@H]1C [Leptomycin B, reference compound], the “Nuclear Export Block” value [1] is reported as “Slow recovery”, the IC50 ([2]; exposure time to compound 1 h) is reported as 3.3 nM and the IC50 ([2]; exposure time to compound 72 h) is reported as 0.3 nM. For the same compound, the IC50 ([3]; exposure time 1 h) was 4.1 nM, the IC50 ([3]; exposure time 72 h) was 0.4 nM and the IC50 ([4]; A549, exposure time 72 h) was 0.55 nM. For the same compound, the IC50 ([5]; UMUC3, exposure time 72 h) was 0.3 nM, the IC50 ([6]; exposure time to compound 1 h) was 2.1 nM and the IC50 ([6]; exposure time to compound 72 h) was 0.4 nM. For the same compound, the IC50 ([7]; exposure time to compound 1 h) was 4.3 nM, the IC50 ([7]; exposure time to compound 72 h) was 0.32 nM and the IC50 ([8]; exposure time 1 h) was 33.8 nM.

Work on CCC(=C/[C@H](C)C/C=C/C(C)=C/[C@@H](C)C(=O)[C@@H](C)[C@H](O)[C@@H](C)C/C(C)=C/C(=O)NCCc1cccnc1)/C=C/[C@@H]1OC(=O)C=C[C@@H]1C [VI, reference compound] yielded an IC50 ([9]; exposure time 1 h) of 1.6 nM, an IC50 ([9]; exposure time 72 h) of 0.4 nM and an IC50 ([10]; exposure time 1 h) of 1.8 nM. For the same compound, the IC50 ([10]; exposure time 72 h) was 0.3 nM, the IC50 [11] was 2.9 nM and the IC50 ([12]; exposure time 1 h) was 5 nM. The IC50 ([12]; exposure time 72 h) was 0.6 nM, the IC50 [13] was 2.5 nM and the IC50 [14] was 4.5 nM. The IC50 ([15]; exposure time 1 h) was 5.7 nM, the IC50 ([15]; exposure time 72 h) was 4.3 nM and the IC50 ([16]; exposure time 1 h) was 5.5 nM. For the same compound, the IC50 ([16]; exposure time 72 h) was 0.9 nM, the IC50 ([17]; exposure time 1 h) was 2.9 nM and the IC50 ([17]; exposure time 72 h) was 0.5 nM. The IC50 ([18]; exposure time 1 h) was 2.1 nM, the IC50 ([18]; exposure time 72 h) was 0.3 nM and the IC50 ([3]; 1 h) was 2.2 nM. For the same compound, the IC50 ([3]; 72 h) was 0.5 nM, the IC50 ([4]; A549, 1 h) was 3.8 nM and the IC50 ([4]; A549, 72 h) was 3 nM. It also gave an IC50 ([5]; UMUC3, 1 h) of 2.6 nM, an IC50 ([5]; UMUC3, 72 h) of 0.3 nM and an IC50 ([19]; exposure time 1 h) of 5 nM. It also gave an IC50 ([19]; exposure time 72 h) of 1.7 nM, an IC50 ([20]; exposure time 1 h) of 6.7 nM and an IC50 ([20]; exposure time 72 h) of 1.5 nM. For the same compound, the IC50 ([8]; 1 h) was 77.3 nM, the IC50 ([8]; 72 h) was 13 nM and the IC50 ([21]; exposure time 1 h) was 2.6 nM. The IC50 ([21]; exposure time 72 h) was 0.4 nM, the IC50 [22] was 0.8 nM and the IC50 ([23]; exposure time 1 h) was 2.1 nM. The IC50 ([23]; exposure time 72 h) was 0.8 nM, the IC50 ([24]; exposure time 1 h) was 0.7 nM and the IC50 ([24]; exposure time 72 h) was 0.3 nM. It also gave an IC50 ([25]; exposure time 1 h) of 3.2 nM, an IC50 ([25]; exposure time 72 h) of 0.7 nM and an IC50 ([26]; exposure time 1 h) of 7.3 nM. The IC50 ([26]; exposure time 72 h) was 1 nM, the IC50 [27] was 4.8 nM and the IC50 ([28]; exposure time 1 h) was 3.3 nM. It also gave an IC50 ([28]; exposure time 72 h) of 0.7 nM.

From patent US7795457B2, “Carbamate compounds” (Kosan Biosciences Incorporated, priority 2007, dated 2010)
